Reference: US20100292185A1, “BETA-LACTAMASE INHIBITORS” (priority 2009, published 2010)
Structures can show the parent of a compound that is named as a salt. Where two headings read alike, the source gives them in different places.

Tests used:
[1] = biological target: T1, KPC-2 β-lactamase (Klebsiella pneumoniae, UniProt Q9F663); test: β-lactamase enzyme inhibition assay (nitrocefin substrate), KPC-2; type: biochemical
T1 construct: expressed as native untagged proteins; made in house; host or cells: E. coli BL21(DE3)
T1 sequence (Q9F663 25-293 limits assumed): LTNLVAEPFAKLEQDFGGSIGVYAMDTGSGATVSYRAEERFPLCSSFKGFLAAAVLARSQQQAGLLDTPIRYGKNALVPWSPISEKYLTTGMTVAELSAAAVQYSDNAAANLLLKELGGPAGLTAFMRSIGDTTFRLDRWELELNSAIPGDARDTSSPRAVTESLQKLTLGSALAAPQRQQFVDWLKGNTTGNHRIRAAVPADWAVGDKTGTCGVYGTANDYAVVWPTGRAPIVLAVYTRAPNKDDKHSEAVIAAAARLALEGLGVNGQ
In short: (§1)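 Enzyme was first mixed with serially diluted compound (100 to 0.005 μM) in PBS pH 7.0 and held 10 min at 37 °C. Next, nitrocefin was dispensed to 100 μM final, and hydrolysis was followed at 486 nm for 10 min. Percent inhibition was then calculated from maximum rates and fitted to an IC50.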

[2] = biological target: T2, p99 AmpC β-lactamase (Enterobacter cloacae, UniProt P05364); test: β-lactamase enzyme inhibition assay (nitrocefin substrate), P99 AmpC; type: biochemical
T2 construct: expressed as native untagged proteins; made in house; host or cells: E. coli BL21(DE3)
T2 sequence (P05364 21-381): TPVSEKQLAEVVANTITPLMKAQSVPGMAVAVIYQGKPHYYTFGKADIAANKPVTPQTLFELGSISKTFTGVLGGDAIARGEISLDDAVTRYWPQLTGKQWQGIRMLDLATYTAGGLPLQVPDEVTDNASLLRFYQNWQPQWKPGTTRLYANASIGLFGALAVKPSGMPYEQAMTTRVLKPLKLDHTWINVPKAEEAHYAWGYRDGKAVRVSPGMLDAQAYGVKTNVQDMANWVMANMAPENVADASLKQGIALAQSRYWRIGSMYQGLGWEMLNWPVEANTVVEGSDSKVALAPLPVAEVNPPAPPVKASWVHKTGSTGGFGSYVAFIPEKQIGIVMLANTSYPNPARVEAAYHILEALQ
In short: as §1

[3] = tested on: E. cloacae expressing the Class C P99+; test: In vitro antibacterial assay of β-lactamase inhibition (broth microdilution MIC), E. cloacae P99+; type: cell-based
In short: (§2)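 Each strain, maintained under 50 μg/mL ampicillin selection, was exposed to twofold compound dilutions (final range 8 μg/mL to 0.015 μg/ml) combined with a β-lactam antibiotic in cation-adjusted Mueller Hinton broth. The MIC was judged visually following overnight (16-20 h) incubation at 37° C.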

[4] = tested on: E. coli expressing the Class A ESBL SHV-5; test: In vitro antibacterial assay of β-lactamase inhibition (broth microdilution MIC), E. coli SHV-5; type: cell-based
In short: as §2

[5] = biological target: T3, CTX-M15 β-lactamase (Escherichia coli, UniProt Q9EXV5); test: β-lactamase enzyme inhibition assay (nitrocefin substrate), CTXM-15; type: biochemical
T3 construct: expressed as native untagged proteins; made in house; host or cells: E. coli BL21(DE3)
T3 sequence (Q9EXV5 entry or part of it): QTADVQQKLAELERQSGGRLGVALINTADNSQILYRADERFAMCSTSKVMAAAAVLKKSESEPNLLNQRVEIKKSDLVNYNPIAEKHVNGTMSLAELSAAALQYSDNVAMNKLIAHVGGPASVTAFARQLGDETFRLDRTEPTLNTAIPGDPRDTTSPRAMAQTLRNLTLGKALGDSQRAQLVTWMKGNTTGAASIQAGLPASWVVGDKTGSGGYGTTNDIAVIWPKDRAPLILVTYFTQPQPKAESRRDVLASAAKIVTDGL
In short: as §1

[6] = tested on: P. aeruginosa expressing the Class B metallo β-lactamase VIM-2; test: In vitro antibacterial assay of β-lactamase inhibition (broth microdilution MIC), P. aeruginosa VIM-2; type: cell-based; conditions: in presence of Ceftazidime 16 μg/mL (Examples 1-56)
In short: as §2

[7] = tested on: K. pneumoniae expressing the Class A Extended Spectrum Beta-Lactamase (ESBL) CTX-M-15; test: In vitro antibacterial assay of β-lactamase inhibition (broth microdilution MIC), K. pneumoniae CTX-M-15; type: cell-based
In short: as §2

[8] = biological target: T4, VIM-2 metallo β-lactamase (Pseudomonas aeruginosa, UniProt Q9K2N0); test: β-lactamase enzyme inhibition assay (nitrocefin substrate), VIM-2; type: biochemical; conditions: nitrocefin 100 μM, 37° C., PBS pH 7.0; read-out: VIM-2 IC50
T4 construct: made in house
Experimental: Isolation of β-lactamases. For SHV-5, p99 AmpC, KPC-2 and CTX-M15 β-lactamases, E. coli BL21(DE3) bacterial cells carrying expression plasmids (expressed as native untagged proteins) for the individual β-lactamases were grown in 1 L of Superbroth (Teknova Inc. Hollister, Calif.) supplemented with 100 μg/ml kanamycin and 1×5052 (0.5% glycerol, 0.05% glucose and 0.2% α-lactose) at 35° C. for 18-20 hours. Cells were harvested by centrifugation (4,000×g, 4° C., 20 min), and resuspended in 50 ml of 10 mM HEPES pH 7.5 (1/20 of the initial volume). The cells were lysed by sonication (5 pulses of 45 seconds) at 45 W on ice. The lysates were clarified by centrifugation at 10,000×g for 40 minutes at 4° C. Samples were diluted 5-fold in 50 mM sodium acetate pH 5.0, stored overnight at 4° C., after which they were centrifuged at 10,000×g for 30 minutes to clarify, and filtered through 0.45 μm filters. The samples were loaded onto a 5 ml Capto S sepharose cation exchange column (GE Healthcare) pre-equilibrated with 50 mM sodium acetate pH 5.0. The column was washed with 5 column volumes of 50 mM sodium acetate pH 5.0 to wash out unbound protein and a linear gradient of NaCl (0 to 500 mM) was used to elute the protein (over 16 CV) from the column. Fractions were assayed for β-lactamase activity using Centa (Calbiochem, Gibbstown, N.J.) as a reporter β-lactamase substrate for activity in the isolated fractions. Active fractions were pooled, concentrated and further purified by gel filtration chromatography on a Superdex 75 prep grade gel filtration column (GE Healthcare, Piscataway, N.J.) pre-equilibrated in 50 mM Hepes pH 7.5, 150 mM NaCl. Active fractions were pooled concentrated, quantitated by BCA protein determination (Thermo Scientific, Rockford, Ill.), and frozen at −80° C. in 20% glycerol until use.
For VIM-2 metallo (β-lactamase, the procedure was identical with the following exceptions: 1) the protein was not pH adjusted to pH 5 with 50 mM sodium acetate, 2) the chromatography step was changed to a 5 ml Q sepharose anion exchange column pre-equilibrated with 50 mM Hepes pH 7.5, and 3) elution of the protein was achieved by a linear gradient of NaCl (0-600 mM). Finally, the VIM-2 purification required a second run (3rd step) on the Q sepharose anion exchange column to achieve acceptable purity (>90%).
(§3) β-lactamase Inhibition. To determine the level of inhibition of β-lactamase enzymes, compounds were diluted in PBS at pH 7.0 to yield concentrations between 100 and 0.005 μM in microtiter plates. An equal volume of diluted enzyme stock was added, and the plates were incubated at 37° C. for 10 min. Nitrocefin solution was then dispensed as substrate into each well at a final concentration of 100 μM, and the plates were immediately read with the kinetic program at 486 nm for 10 min on the SPECTRAMAX® Plus^384 (high-throughput microplate spectrophotometer; Molecular Devices Corp., Sunnyvale, Calif.). Maximum rates of metabolism were then compared to those in control wells (without inhibitors), and percentages of enzyme inhibition were calculated for each concentration of inhibitor. The concentration of inhibitor needed to reduce the initial rate of hydrolysis of substrate by 50% (IC50) was calculated as the residual activity of β-lactamase at 486 nm using the SoftMax Pro 5.0 software (Molecular Devices Corp.).
Using the methodology described above, examples of the current invention were evaluated for their ability to inhibit β-lactamase enzymes. The results of these assays are summarized in Table 2 for representative enzymes across different subtypes (note SHV-5 and CTXM-15 exemplify different subclasses of Ambler Class A Extended Spectrum Beta Lactamases, KPC-2 exemplifies Class A carbapenemases, P99 represents chromosomal Class C AmpC, VIM-2 exemplifies subclass B1 of metallo-β-lactamases, and OXA-23 represents chromosome-encoded Class D oxacillin-hydrolyzing β-lactamases), NT=not tested.

[9] = biological target: T5, SHV-5 β-lactamase (Klebsiella pneumoniae, UniProt P0A3M1); test: β-lactamase enzyme inhibition assay (nitrocefin substrate), SHV-5; type: biochemical
T5 construct: expressed as native untagged proteins; made in house; host or cells: E. coli BL21(DE3)
T5 sequence (P0A3M1 22-286): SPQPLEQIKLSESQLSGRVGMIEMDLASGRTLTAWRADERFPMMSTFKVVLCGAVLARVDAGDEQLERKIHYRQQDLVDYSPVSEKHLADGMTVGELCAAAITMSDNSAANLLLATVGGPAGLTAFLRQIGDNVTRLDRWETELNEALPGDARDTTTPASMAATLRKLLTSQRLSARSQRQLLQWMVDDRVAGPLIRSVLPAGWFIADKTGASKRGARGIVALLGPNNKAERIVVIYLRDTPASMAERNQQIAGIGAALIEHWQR
In short: as §1

[10] = biological target: T6, OXA-23 β-lactamase (Acinetobacter baumannii, UniProt Q9L4P2); test: β-lactamase enzyme inhibition assay (nitrocefin substrate), OXA-23 crude extract; type: biochemical; conditions: nitrocefin 100 μM, 37° C., PBS pH 7.0; read-out: OXA-23 IC50
T6 construct: crude β-lactamase extracts were prepared from 20 ml overnight cultures; endogenous in cells; host or cells: Acinetobacter baumannii cells containing OXA-23 (crude freeze-thaw extract)
T6 sequence (Q9L4P2 18-273): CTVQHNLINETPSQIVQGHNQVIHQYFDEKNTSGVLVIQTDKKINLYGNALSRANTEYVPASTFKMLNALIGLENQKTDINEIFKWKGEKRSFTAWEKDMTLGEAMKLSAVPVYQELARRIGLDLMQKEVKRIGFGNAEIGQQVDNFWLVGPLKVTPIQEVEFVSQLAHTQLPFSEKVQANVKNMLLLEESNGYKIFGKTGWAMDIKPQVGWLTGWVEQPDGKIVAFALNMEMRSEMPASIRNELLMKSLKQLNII
Experimental: For OXA-23 β-lactamase, crude β-lactamase extracts were prepared from 20 ml overnight cultures with shaking. Acenitobacter baumanni cells containing OXA-23 were further diluted 10-fold and grown to mid-log phase (OD at 600 nm, 0.5-0.8) in Mueller-Hinton II (MH-II) broth at 37° C. The cells were pelleted at 5000 g, washed and resuspended in 2 mL PBS pH 7.0. The β-lactamases were extracted by four cycles of freezing and thawing followed by centrifugation. β-lactamase activity in the extracts was measured with the chromogenic cephalosporin nitrocefin. The amount of protein in each β-lactamase preparation was determined by the bicinchoninic acid (BCA) assay.
as §3

[11] = tested on: K. pneumoniae expressing the Class A carbapenemase KPC-2; test: microbe, parasite or virus in culture; type: cell-based
In short: as §2

[12] = nitrocefin 100 μM, 37° C., PBS pH 7.0, read-out: P99 AmpC IC50
[13] = in presence of Ceftazidime 8 μg/ml (Examples 1-56)
[14] = in presence of Piperacillin 16 μg/ml (Examples 57-65)

Row | Compound | IC50 [1] [nM] | IC50 [2, 12] [nM] | MIC of example compound, E. cloacae P99+ [3, 13] [µg/mL] | MIC of example compound, E. coli SHV-5 [4, 13] [µg/mL] | IC50 [5] [nM] | MIC of example compound, P. aeruginosa VIM-2 [6] [µg/mL] | MIC of example compound, K. pneumoniae CTX-M-15 [7, 13] [µg/mL] | IC50 [8] [nM] | IC50 [9] [nM] | IC50 [10] [nM] | MIC of example compound, K. pneumoniae KPC-2 [11, 13] [µg/mL] | MIC of example compound, E. cloacae P99+ [3, 14] [µg/mL] | MIC of example compound, E. coli SHV-5 [4, 14] [µg/mL] | MIC of example compound, K. pneumoniae CTX-M-15 [7, 14] [µg/mL] | MIC of example compound, K. pneumoniae KPC-2 [11, 14] [µg/mL] | IC50 [2] [nM]
1 | NCc1cccc(C(=O)N[C@@H](Cc2cccc(C(=O)O)c2O)B(O)O)c1 [Example 1, 2(R)-3-[2-(3-(Aminomethyl)benzoylamino)-2-borono-ethyl]-2-hydroxy-benzoic acid hydrochloride] | 20 | 1 | 0.25 | 4 | 3 | 8 | 1 | 152 | 653 | 64 | 0.125 | – | – | – | – | –
2 | Cl.NCc1ccc(C(=O)N[C@@H](Cc2cccc(C(=O)O)c2O)B(O)O)cc1 [Example 2, 2(R)-3-[2-(4-(Aminomethyl)benzoylamino)-2-borono-ethyl]-2-hydroxy-benzoic acid hydrochloride] | 13 | 3 | 0.25 | 8 | 2 | 8 | 2 | 22 | > 1000 | > 1000 | 0.015 | – | – | – | – | –
3 | O=C(N[C@@H](Cc1cccc(C(=O)O)c1O)B(O)O)c1ccc(CN2CCOCC2)cc1 [Example 3, 2(R)-3-[2-(4-(Morpholinomethyl)benzoylamino)-2-borono-ethyl]-2-hydroxy-benzoic acid formate] | 14 | 3 | 4 | 8 | 4 | >8 | 2 | 850 | 367 | > 1000 | 0.12 | – | – | – | – | –
4 | Cl.Nc1cc(C(=O)N[C@@H](Cc2cccc(C(=O)O)c2O)B(O)O)ccn1 [Example 8, (2R)-3-{2-[(2-Amino-pyridine-4-carbonyl)-amino]-2-borono-ethyl}-2-hydroxy-benzoic acid] | 5 | 2 | 0.5 | 1 | 28 | – | 0.5 | 700 | 29 | 144 | 0.06 | – | – | – | – | –
5 | O=C(Cc1ccc(CN2CCCC2)cc1)N[C@@H](Cc1cccc(C(=O)O)c1O)B(O)O [Example 38, (1R)-[2-(4-pyrrolin-1-ylmethyl-phenyl)-acetylamino]-(3-carboxy-2-hydroxy)benzyl-methylboronic acid formate] | 6 | 9 | 0.5 | 0.5 | 3 | – | 0.25 | 858 | 5 | 234 | 0.03 | – | – | – | – | –
6 | Nc1cccc[n+]1Cc1ccc(CC(=O)N[C@@H](Cc2cccc(C(=O)O)c2O)B(O)O)cc1 [Example 40, (1R)-2-amino-(4-{[2-(3-carboxy-2-hydroxy-phenyl-borono-ethylcarbamoyl]-methyl}-benzyl)-pyridinium formate] | 653 | 10 | 2 | 0.25 | 4 | >8 | 0.25 | > 1000 | 20 | 132 | – | – | – | – | – | –
7 | Cl.NCc1cc(CC(=O)N[C@@H](Cc2cccc(C(=O)O)c2O)B(O)O)ccn1 [Example 63, (2R)-3-{2-[(2-Aminomethyl-pyridin-4-yl-acetyl)-amino]-2-borono-ethyl}-2-hydroxy-benzoic acid hydrochloride] | 24 | 9 | – | – | 10 | – | – | 621 | 8 | 534 | – | 4 | 0.06 | >16 | 0.125 | –
8 | N=C(N)NCc1cc(CC(=O)N[C@@H](Cc2cccc(C(=O)O)c2O)B(O)O)ccn1 [Example 64, (2R)-3-{2-[(2-Guanidinomethyl-pyridin-4-yl-acetyl)-amino]-2-borono-ethyl}-2-hydroxy-benzoic acid formate] | 17 | – | – | – | 3 | – | – | 548 | 3 | 177 | – | 4 | 0.125 | >16 | 0.125 | 8
